In this assay the target is mGluR5 (Homo sapiens, UniProt P41594). The assay can be described thus: inhibition of the glutamate induced elevation of intracellular Ca2+ concentration. The conditions noted are these: read-out: mGluR5 Activity inh. at 10 μM [%].

Each structure is given as a SMILES string. Structures can show the parent of a compound that is named as a salt.

Results on 38 molecules are retold here after patent US20090005363A1, “Organic Compounds” (priority 2005, published 2009).

Chain of mGluR5 (P41594 21-1180 isoform P41594-2 limits assumed): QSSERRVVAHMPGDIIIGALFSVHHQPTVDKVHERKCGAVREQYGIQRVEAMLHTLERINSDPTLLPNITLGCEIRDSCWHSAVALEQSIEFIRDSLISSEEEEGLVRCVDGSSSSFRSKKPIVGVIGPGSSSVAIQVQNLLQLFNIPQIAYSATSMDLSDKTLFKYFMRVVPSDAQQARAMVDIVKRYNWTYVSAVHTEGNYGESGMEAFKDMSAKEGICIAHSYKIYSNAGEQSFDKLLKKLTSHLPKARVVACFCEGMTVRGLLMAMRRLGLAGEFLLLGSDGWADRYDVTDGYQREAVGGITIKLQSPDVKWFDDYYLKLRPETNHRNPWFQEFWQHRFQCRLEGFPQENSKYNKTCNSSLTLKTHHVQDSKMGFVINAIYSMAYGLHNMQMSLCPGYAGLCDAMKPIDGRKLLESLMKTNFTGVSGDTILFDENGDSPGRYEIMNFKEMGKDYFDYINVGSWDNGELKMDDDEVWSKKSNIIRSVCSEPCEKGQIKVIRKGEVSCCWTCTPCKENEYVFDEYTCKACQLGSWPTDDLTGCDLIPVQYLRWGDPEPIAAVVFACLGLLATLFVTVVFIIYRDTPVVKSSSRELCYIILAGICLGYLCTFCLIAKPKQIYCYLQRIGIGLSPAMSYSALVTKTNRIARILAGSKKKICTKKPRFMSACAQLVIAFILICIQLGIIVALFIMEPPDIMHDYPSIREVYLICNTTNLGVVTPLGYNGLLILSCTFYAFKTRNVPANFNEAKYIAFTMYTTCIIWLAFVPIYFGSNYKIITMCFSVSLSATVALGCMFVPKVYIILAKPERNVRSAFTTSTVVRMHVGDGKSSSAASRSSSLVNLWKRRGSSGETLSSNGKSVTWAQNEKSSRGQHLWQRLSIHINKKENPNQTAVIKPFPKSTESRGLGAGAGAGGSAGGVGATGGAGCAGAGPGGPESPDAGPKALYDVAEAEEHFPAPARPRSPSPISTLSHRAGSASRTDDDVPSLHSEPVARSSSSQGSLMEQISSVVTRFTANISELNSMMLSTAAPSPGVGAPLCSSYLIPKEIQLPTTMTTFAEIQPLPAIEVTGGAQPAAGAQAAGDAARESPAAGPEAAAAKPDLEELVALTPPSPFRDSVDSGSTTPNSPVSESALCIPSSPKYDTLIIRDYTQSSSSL
Text: This can be determined in vitro for example at recombinant human metabotropic glutamate receptors, especially PLC-coupled subtypes thereof such as mGluR5, using different procedures like, for example, measurement of the inhibition of the agonist induced elevation of intracellular Ca^2+ concentration in accordance with L. P. Daggett et al., Neuropharm.

For `COc1ccc(Nc2ccc(C(=O)N3CCCC(C)C3)cn2)cc1` (centres unmarked) [Compound 1.14, [6-(4-Methoxy-phenylamino)-pyridin-3-yl]-(3-methyl-piperidin-1-yl)-methanone hydrochloride], the inhibition at 10 µM was found to be 94%.

Regarding `Cc1ccc(Nc2ncc(C(=O)N3CCC[C@@H](C)[C@H]3C)cc2Cl)cn1` [Compound 4.22, [5-Chloro-6-(6-methyl-pyridin-3-ylamino)-pyridin-3-yl]-((2R,3R)-2,3-dimethyl-piperidin-1-yl)-methanone], the inhibition at 10 µM is 98%.

Take `Cc1ncc(Nc2ncc(C(=O)N3CCCCC3)cc2Cl)cn1` [Compound 2.17, [5-Chloro-6-(2-methyl-pyrimidin-5-ylamino)-pyridin-3-yl]-piperidin-1-yl-methanone]: the inhibition at 10 µM was 97%.

`Cc1ccc(Nc2ncc(C(=O)N3CCCCC3c3ccc(C)o3)cc2Cl)cn1` (centres unmarked) [Compound 4.45, [5-Chloro-6-(6-methyl-pyridin-3-ylamino)-pyridin-3-yl]-[2-(5-methyl-furan-2-yl)-piperidin-1-yl]-methanone]: the inhibition at 10 µM was determined as 90%.

With `O=C(c1ccc(Nc2ccc(Cl)cc2)nn1)N1CCc2ccccc2C1` [Compound 8.4, [6-(4-Chloro-phenylamino)-pyridazin-3-yl]-(3,4-dihydro-1H-isoquinolin-2-yl)-methanone], the inhibition at 10 µM was 89%.

Take `O=C(c1ccc(Nc2ccc(Cl)cc2)nc1)N1CCCC(F)(F)C1` [Compound 4.3, [6-(4-Chloro-phenylamino)-pyridin-3-yl]-(3,3-difluoro-piperidin-1-yl)-methanone]: the inhibition at 10 µM was 92%.

On to `CCN(CC)C(=O)c1ccc(Nc2ccc(Cl)cc2)nc1` [Compound 1.1, 6-(4-Chloro-phenylamino)-N,N-diethyl-nicotinamide hydrochloride], for which the inhibition at 10 µM amounted to 95%.

For `O=C(c1ccc(Nc2ccc(Cl)cc2)nc1)N1CC2CCC1C2` (racemic) [Compound 4.12, rac-(2-Aza-bicyclo[2.2.1]hept-2-yl)-[6-(4-chloro-phenylamino)-pyridin-3-yl]-methanone], the inhibition at 10 µM turned out to be 96%.

Take `Cc1ccc(Nc2ncc(C(=O)N3CC4CCC3C4)cc2Cl)cn1` (racemic) [Compound 2.13, rac-(2-Aza-bicyclo[2.2.1]hept-2-yl)-[5-chloro-6-(6-methyl-pyridin-3-ylamino)-pyridin-3-yl]-methanone]: the inhibition at 10 µM was found to be 96%.

Turning to `Cc1ccc(Nc2ncc(C(=O)N3CCCC3c3ccccc3)cc2Cl)cn1` (centres unmarked) [Compound 4.72, [5-Chloro-6-(6-methyl-pyridin-3-ylamino)-pyridin-3-yl]-(2-phenyl-pyrrolidin-1-yl)-methanone], the inhibition at 10 µM stood at 97%.

In the case of `Cc1ccc(Oc2ncc(C(=O)N3CCCCCC3)cc2Cl)cn1` [Compound 3.3, Azepan-1-yl-[5-chloro-6-(6-methyl-pyridin-3-yloxy)-pyridin-3-yl]-methanone], the inhibition at 10 µM amounted to 90%.

Consider `Cc1ccc(Nc2ncc(C(=O)N3CCCC[C@@H]3C(C)C)cc2Cl)cn1` [Compound 4.29, [5-Chloro-6-(6-methyl-pyridin-3-ylamino)-pyridin-3-yl]-((R)-2-isopropyl-piperidin-1-yl)-methanone], for which the inhibition at 10 µM was 86%.

As to `CC1CCN(C(=O)c2ccc(Nc3ccc(Cl)cc3)nn2)CC1` [Compound 8.5, [6-(4-Chloro-phenylamino)-pyridazin-3-yl]-(4-methyl-piperidin-1-yl)-methanone], the inhibition at 10 µM was 86%.

Take `Cc1ccc(Nc2ncc(C(=O)N3CCCCC3CCO)cc2Cl)cn1` (centres unmarked) [Compound 4.61, [5-Chloro-6(6-methyl-pyridin-3-ylamino)-pyridin-3-yl]-[2-(2-hydroxy-ethyl)-piperidin-1-yl]-methanone]: the inhibition at 10 µM came out at 79%.

As to `Cc1ccc(Nc2ncc(C(=O)N3CCC[C@H](C)[C@@H]3C)cc2Cl)cn1` [Compound 4.21, [5-Chloro-6-(6-methyl-pyridin-3-ylamino)-pyridin-3-yl]-((2S,3S)-2,3-dimethyl-piperidin-1-yl)-methanone], the inhibition at 10 µM came to 99%.

Regarding `Cc1ccc(Nc2ccc(C(=O)N3CCC[C@@H](C)C3)cn2)cn1` [Compound 4.13b, (R-3-Methyl-piperidin-1-yl)-[6-(6-methyl-pyridin-3-ylamino)-pyridin-3-yl]-methanone], the inhibition at 10 µM was determined as 96%.

For `C[C@@H]1CN(C(=O)c2ccc(Nc3ccc(Cl)cc3)nc2)C[C@H](C)O1` [Compound 1.19, cis-[6-(4-Chloro-phenylamino)-pyridin-3-yl]-(2,6-dimethyl-morpholin-4-yl)-methanone hydrochloride], the inhibition at 10 µM was 94%.

For the molecule `O=C(c1ccc(Nc2ccc(Cl)cc2)nc1)N1CCCC(CO)C1` (racemic) [Compound 4.6, rac-[6-(4-Chloro-phenylamino)-pyridin-3-yl]-(3-hydroxymethyl-piperidin-1-yl)-methanone], the inhibition at 10 µM amounted to 86%.

On to `CCCC1CCCCN1C(=O)c1cnc(Nc2ccc(C)nc2)c(Cl)c1` (centres unmarked) [Compound 4.34, [5-Chloro-6-(6-methyl-pyridin-3-ylamino)-pyridin-3-yl]-(2-propyl-piperidin-1-yl)-methanone], for which the inhibition at 10 µM amounted to 98%.

For `CCC(CC)C1OCCCN1C(=O)c1cnc(Nc2ccc(C)nc2)c(Cl)c1` (centres unmarked) [Compound 4.69, [5-Chloro-6-(6-methyl-pyridin-3-ylamino)-pyridin-3-yl]-[2-(1-ethyl-propyl)-[1,3]oxazinan-3-yl]-methanone], the inhibition at 10 µM was 99%.

On to `CCCC1COCCN1C(=O)c1cnc(Nc2ccc(C)nc2)c(Cl)c1` (centres unmarked) [Compound 4.77, [5-Chloro-6-(6-methyl-pyridin-3-ylamino)-pyridin-3-yl]-(3-propyl-morpholin-4-yl)-methanone], for which the inhibition at 10 µM amounted to 100%.

For `C=CC1CCCCN1C(=O)c1cnc(Nc2ccc(C)nc2)c(Cl)c1` (centres unmarked) [Compound 4.55, [5-Chloro-6-(6-methyl-pyridin-3-ylamino)-pyridin-3-yl]-(2-vinyl-piperidin-1-yl)-methanone], the inhibition at 10 µM was 96%.

Take `Cc1ccc(Nc2ncc(C(=O)N3C(C)CCCC3C)cc2Cl)cn1` (centres unmarked) [Compound 4.48, [5-Chloro-6-(6-methyl-pyridin-3-ylamino)-pyridin-3-yl]-(2,6-dimethyl-piperidin-1-yl)-methanone]: the inhibition at 10 µM came to 99%.

For the molecule `Cc1ccc(Nc2ncc(C(=O)N3CCCC3c3ccccn3)cc2Cl)cn1` (centres unmarked) [Compound 4.73, [5-Chloro-6-(6-methyl-pyridin-3-ylamino)-pyridin-3-yl]-(2-pyridin-2-yl-pyrrolidin-1-yl)-methanone], the inhibition at 10 µM was determined as 72%.

Regarding `O=C(c1ccc(Nc2cccnc2)nc1)N1CCCCCC1` [Compound 2.2, Azepan-1-yl-[6-(pyridin-3-ylamino)-pyridin-3-yl]-methanone], the inhibition at 10 µM worked out at 46%.

`CCC1OCCCCN1C(=O)c1cnc(Nc2ccc(C)nc2)c(Cl)c1` (centres unmarked) [Compound 4.65, [5-Chloro-6-(6-methyl-pyridin-3-ylamino)-pyridin-3-yl]-(2-ethyl-[1,3]oxazepan-3-yl)-methanone]: the inhibition at 10 µM amounted to 83%.

Consider `Cc1ccc(Nc2ncc(C(=O)N3CCCCC3)cc2F)cn1` [Compound 9.2, [5-Fluoro-6-(6-methyl-pyridin-3-ylamino)-pyridin-3-yl]-piperidin-1-yl-methanone], for which the inhibition at 10 µM worked out at 99%.

For the molecule `COc1ccc(Nc2ccc(C(=O)N3CCCCC3C)cn2)cc1` (centres unmarked) [Compound 1.11, [6-(4-Methoxy-phenylamino)-pyridin-3-yl]-(2-methyl-piperidin-1-yl)-methanone hydrochloride], the inhibition at 10 µM came out at 71%.

With `Cc1ccc(Nc2ccc(C(=O)N3CCCC(C)C3)cn2)cn1` (racemic) [Compound 4.13, rac-(3-Methyl-piperidin-1-yl)-[6-(6-methyl-pyridin-3-ylamino)-pyridin-3-yl]-methanone], the inhibition at 10 µM came to 97%.

Regarding `Cc1ccc(Nc2ncc(C(=O)N3CCCCC3c3ccccc3)cc2Cl)cn1` (centres unmarked) [Compound 4.41, [5-Chloro-6-(6-methyl-pyridin-3-ylamino)-pyridin-3-yl]-(2-phenyl-piperidin-1-yl)-methanone], the inhibition at 10 µM amounted to 96%.

Regarding `COc1ccc(Nc2ncc(C(=O)N3CCCCCC3)cc2Cl)cn1` [Compound 2.7, Azepan-1-yl-[5-chloro-6-(6-methoxy-pyridin-3-ylamino)-pyridin-3-yl]-methanone], the inhibition at 10 µM was found to be 98%.

As for `CCOc1cc(C(=O)N2CCCCCC2)cnc1Nc1ccc(C)nc1` [Compound 6.6, Azepan-1-yl-[5-ethoxy-6-(6-methyl-pyridin-3-ylamino)-pyridin-3-yl]-methanone], the inhibition at 10 µM was 54%.

For `Cc1ccc(Nc2ccc(C(=O)N3CCCCCCC3)cn2)cn1` [Compound 4.16, Azocan-1-yl-[6-(6-methyl-pyridin-3-ylamino)-pyridin-3-yl]-methanone], the inhibition at 10 µM was determined as 81%.

In the case of `COCCC1CCCCN1C(=O)c1cnc(Nc2ccc(C)nc2)c(Cl)c1` (centres unmarked) [Compound 4.71, [5-Chloro-6-(6-methyl-pyridin-3-ylamino)-pyridin-3-yl]-[2-(2-methoxy-ethyl)-piperidin-1-yl]-methanone], the inhibition at 10 µM came to 99%.

Consider `O=C(c1ccc(Nc2ccc(Cl)cc2)nn1)N1CCCCC1` [Compound 8.1, [6-(4-Chloro-phenylamino)-pyridazin-3-yl]-piperidin-1-yl-methanone], for which the inhibition at 10 µM is 91%.

For `O=C(c1ccc(Nc2ccc(Cl)cc2)nc1)N1C2CCC1CC(O)C2` (centres unmarked) [Compound 4.11, [6-(4-Chloro-phenylamino)-pyridin-3-yl]-(3-hydroxy-8-aza-bicyclo[3.2.1]oct-8-yl)-methanone], the inhibition at 10 µM stood at 51%.

Regarding `Cc1ccc(Nc2ncc(C(=O)N3CCCCC3C(C)C)cc2Cl)cn1` (centres unmarked) [Compound 4.28, [5-Chloro-6-(6-methyl-pyridin-3-ylamino)-pyridin-3-yl]-(2-isopropyl-piperidin-1-yl)-methanone], the inhibition at 10 µM worked out at 93%.

Turning to `O=C(c1ccc(Nc2ccc(Cl)c(F)c2)nc1)N1CCCCC1` [Compound 1.5, [6-(4-Chloro-3-fluoro-phenylamino)-pyridin-3-yl]-piperidin-1-yl-methanone], the inhibition at 10 µM was 90%.
